Results on 3 molecules are retold here after paper PMC12955470, “A novel approach to combat Pseudomonas aeruginosa: repurposing pharmaceuticals for inhibition of phospholipase A” (Microbiology Spectrum, 2026).

Molecules are shown by their SMILES.

The assay deals with T1, PlaF (Pseudomonas aeruginosa, UniProt G3XCU7).
T1 construct: gene PA2949; purified PlaF (pBBR-plaFH6, His-tagged) reconstituted into phospholipid liposomes
The assay is described as follows: p-NPB esterase assay with purified PlaF; Michaelis-Menten kinetics (Km increased, vmax unchanged). Type of assay: biochemical.

T1 sequence (G3XCU7 entry or part of it): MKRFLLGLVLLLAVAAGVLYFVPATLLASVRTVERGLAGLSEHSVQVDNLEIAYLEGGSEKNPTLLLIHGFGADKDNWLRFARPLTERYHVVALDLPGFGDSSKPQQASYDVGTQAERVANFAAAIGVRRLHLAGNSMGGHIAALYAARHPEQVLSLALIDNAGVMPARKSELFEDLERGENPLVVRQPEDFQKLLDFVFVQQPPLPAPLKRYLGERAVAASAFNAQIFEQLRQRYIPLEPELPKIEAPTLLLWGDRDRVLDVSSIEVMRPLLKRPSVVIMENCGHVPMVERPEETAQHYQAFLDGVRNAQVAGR

Turning to `O=C(/C=C/c1ccc(/C=C/C(=O)Nc2ccc(C3=NCCN3)cc2)cc1)Nc1ccc(C2=NCCN2)cc1` [GW4869], the inhibition – broadly, the relative decrease from the control value, in per cent – at 69.2 µM is around 30%.
In turn, `CCN(CC)CCN(Cc1ccc(-c2ccc(C(F)(F)F)cc2)cc1)C(=O)Cn1c(SCc2ccc(F)cc2)nc(=O)c2c1CCC2` [darapladib] registered an inhibition at 400 µM of around 50%.
Still for that read-out and setting: with `COCCN1CCC(N(Cc2ccc(-c3ccc(C(F)(F)F)cc3)cc2)C(=O)Cn2c(SCc3cccc(F)c3F)cc(=O)c3ccccc32)CC1` [rilapladib] the figure was around 50%.
